The nature of experiment [1]: Lamb trials: growth, feed efficiency, wool and carcass. The class given is in vivo, lambs (sheep). The text has this: The lambs used in Trial 1 consisted of medium-frame crossbred wethers and ewes weighing 26 to 31 kg. The lambs used in Trial 2 consisted of medium-framced crossbred rams weighing 18 to 25 kg. Each animal was raised as a single. The lambs were housed in a temperature controlled room in individual pens with nipple waterers. When received, the lamps were vaccinated for enterotoxemia. They were allowed to adjust to the pens and the environment for 10 days. One day before the trial began, the lambs were sheared and placed on their respective dietary treatments. The lamps were allotted blocking by weight and sex into two dietary treatment groups. Growth and feed consumption were measured bi-weekly. All lamb weights were taken after a 12 to 16 hour fast. The animals were slaughtered at 50 kg in the Iowa State University Meat laboratory facilities at Ames, Iowa. At slaughter, the lamb's internal organs and wool were weighed and sampled, loin eye area and back fat measured, and carcasses separated into fat, lean, and bone.
The SMB (soybean meal-containing) and the CGM (corn-gluten-containing) diets (compositions given in Table A) were fed twice per day in quantities ensuring that feed was before the lambs at all times. The diets were calculated to be equivalent to each other with respect to metabolizable protein, ether extract, fiber, and minerals with the exception of calcium and phosphorus. […] The CGM diet was calculated to contain slightly more energy (TDN 81.7 vs. 79.0, NEm 1.88 v. 1.86, Neg. 1.23 vs. 1.22). […] The soybean meal ingredient contained about 3.5 wt % leucine, while the corn gluten meal ingredient contained about 15 wt % leucine. The CGM diet was therefore higher in leucine than the SBM diet, containing an estimated 16 wt % leucine as compared with an estimated 8 wt % leucine based on total crude protein in the diet.
^(1) Feed ingredients given on wt % basis.
^(3) Diets containing calcium salt of alphaketoisocaproate (KIC).
^(1) Statistical analysis: *designates p < .05, a significant
^(2) Average daily (24 hrs.) gain (kilograms).
^(3) Kilograms feed per kilogram weight gain.
^(4) Amount of wool in grams.
^(5) Amount of back fat in inches.
^(6) Amount of lean meat in kilograms.
^(1)- (8) See Table B, except cholesterol data is for lean tissue

A further experiment concerns plasma cortisol. Nature of the experiment: Plasma cortisol in pigs after test meals. It counts as in vivo. The method, then:
To determine if KIC could acutely alter cortisol concentrations, young pigs were fed meals supplemented with leucine or KIC and plasma cortisol was measured.
In experiment 1, sixteen female pigs weighing 20-30 kg were used. Seven days before study, catheters were surgically placed in the right atria for blood sampling. Animals were housed in individual cages during the recovery period and had free access to water. Preceding the experiment, animals were fed twice daily a basal diet (2% of body weight per feeding). The basal diet consisted of a corn-soybean mix, adequate in all minerals and vitamins and containing approximately 14% crude protein. Test meals were formulated by additions to a basal diet. Five animals received the basal diet (control); five animals received the leucine meal, which had 2% leucine added to the basal diet; and six animals received the KIC diet, which had 2% KIC (sodium salt equivalent to 1.7% free acid) added to the basel diet. Studies were begun between 0800 and 0900 h after a 24-hr fast. Basal blood samples were taken at -20, -10 and -5 min. Animals were then offered 100 g of their respective test meal (time 0). Pigs were included in the study only if they consumed the entire meal in the first 20 min. […] Plasma was separated, Trasylol (FBA Pharmaceuticals, New York, NY) added (50 ul/ml), and plasma stored at -70 C. until analyzed.
Cortisol was measured by coated tube kits (Gammacoat, Travenol-Genetech Diagnostics, Cambridge, MA). Leucine and KIC were measured by high pressure liquid chromatography. Crystalline leucine was obtained from Sigma Chemical (St. Louis, MO) and KIC-sodium was obtained from SOBAC (Paris, France). Statistical analysis of the individual pig responses was conducted on mean plasma concentrations before the meal (-20 to 0 min) and after the meal (120 to 240 min). When the overall treatment F-value was significant, differences between individual treatments were determined using the pooled SEM and a T-test.

For `CC(C)CC(=O)C(=O)O` [KIC, alpha-ketoisocaproate], the “F/G: kilograms feed per kilogram weight gain” value in experiment [1] (Trial 1, CGM diet, 1% KIC (0%: 4.53), * p<.05) is recorded as 5.20; in experiment [1] (Trial 1, SBM diet, 1% KIC (0%: 5.04), * p<.05), 4.82; in experiment [1] (Trial 2, CGM diet, 1% KIC (0%: 4.17)) it was 4.35; in experiment [1] (Trial 2, SBM diet, 1% KIC (0%: 4.76), * p<.05) it was 4.17. The “LEAN: amount of lean meat” value in experiment [1] (Trial 1, CGM diet, 1% KIC (0%: 5.9)) was 6.0 kilograms; in experiment [1] (Trial 1, SBM diet, 1% KIC (0%: 6.2)), 6.8 kilograms; in experiment [1] (Trial 2, CGM diet, 1% KIC (0%: 6.1)) it was 5.8 kilograms; in experiment [1] (Trial 2, SBM diet, 1% KIC (0%: 5.9)) it was 5.4 kilograms. For the same molecule, the “WOOL: amount of wool” value in experiment [1] (Trial 1, CGM diet, 1% KIC (0%: .158), * p<.05) is recorded as “.167 grams”; in experiment [1] (Trial 1, SBM diet, 1% KIC (0%: .176), * p<.05), “.216 grams”; in experiment [1] (Trial 2, CGM diet, 1% KIC (0%: .262), * p<.05), “.294 grams”; in experiment [1] (Trial 2, SBM diet, 1% KIC (0%: .213), * p<.05), “.267 grams”. In addition, the “BACK FAT: amount of back fat” value is “.18 inches” in experiment [1] (Trial 1, CGM diet, 1% KIC (0%: .20)); “.22 inches” in experiment [1] (Trial 1, SBM diet, 1% KIC (0%: .26)); “.20 inches” in experiment [1] (Trial 2, CGM diet, 1% KIC (0%: .29)); “.21 inches” in experiment [1] (Trial 2, SBM diet, 1% KIC (0%: .26)). Moreover, the “ADG: average daily (24 hrs.) gain” value in experiment [1] (Trial 1, CGM diet, 1% KIC (0%: .37)) was “.30 kilograms”; in experiment [1] (Trial 1, SBM diet, 1% KIC (0%: .33)), “.36 kilograms”; in experiment [1] (Trial 2, CGM diet, 1% KIC (0%: .333), * p<.05), “.308 kilograms”; in experiment [1] (Trial 2, SBM diet, 1% KIC (0%: .304), * p<.05), “.339 kilograms”. The “decrease in cortisol concentration” value in the experiment on plasma cortisol (2% KIC, by 240-300 minutes after the meal, p<0.01) is recorded as 40%. Further, the “Plasma cortisol, Change” value in the experiment with plasma cortisol (2% in meal, control -0.09) was -1.99 µg/dL. Besides, the “Plasma cortisol, Post” value in the experiment on plasma cortisol (2% in meal, pre: leucine 2.8, KIC 4.7, pooled SEM 0.49) was 2.9 µg/dL.

(Values after patent publication US4835185A, “Immunomodulator for improving commercial performance of domestic animals” (Iowa State University Research Foundation, Inc., priority 1987, dated 1989).)
